Assays:
[1] = test system: C4-2 cells; conditions: 5 μM, DHT 1 nM, charcoal stripped FBS, 6 days
Protocol: The medium and drug were refreshed every two days.
The anti-PCa potential of 2-63 was further characterized by assessing its inhibitory effects on DHT-stimulated C4-2 cell growth. […] C4-2 cells were cultured in charcoal-stripped, steroid-free medium and cells were stimulated with androgen.

[2] = test system: RWPE-1 cells; assay: BSO pretreatment plus 2-63, MTT viability, RWPE-1 cells; conditions: BSO 100 μM plus 2-63 5 μM, 24 h
Protocol: Cell viability was then assessed using an MTT assay.
PCa cells (6×10^3 cells/well) were seeded into 96-well plates overnight and then treated with indicated compounds at indicated concentrations and time durations. The MTT (3-(4, 5-Dimethylthiazol-2-yl)-2,5-diphenyltetrazolium bromide) assay was performed according to the standard protocol. Briefly, MTT (0.5 mg/mL) was incubated with cells at 37° C. for 3 hours. Supernatant was removed, followed by the addition of dimethyl DMSO (100 μl). After incubation for 30 minutes at 37° C., absorbance was read at 570 nm on a microplate reader.

[3] = test system: 22Rv1 cells; assay: MTT viability assay, 22Rv1 cells; type: cell-based; conditions: 5 μM, 72 h
Source text: (§1) Biological Characterization. ITC-ARi hybrid drugs effectively reduce the viability of PCa cells. By using an MTT assay, it was first examined if the newly synthesized hybrid drugs affect the viability of CRPC-relevant PCa cells. PCa VCaP cells naturally express abundant wild type FL AR as well as AR splice variants (e.g., AR-V7). These cells were, therefore, used as one of the cell culture models in this work to investigate the drug-caused viability loss and AR downregulation.

[4] = test system: C4-2 cells; assay: MTT viability assay, C4-2 cells; type: cell-based; conditions: 5 μM, 72 h
Source text: as §1

[5] = biological target: T1, FL AR and AR-V7 (Homo sapiens, UniProt P10275); assay: Western blotting of FL AR and AR-V7 in VCaP cells; type: cell-based; conditions: full media, 16 h, 2-63, 12b 5 and 15 μM, Enz 10 μM, SAHA 1 μM
T1 construct: Whole cell lysates were subjected to Western blotting and probed with the indicated antibodies; endogenous in cells; host or cells: VCaP
T1 sequence (P10275 1-920): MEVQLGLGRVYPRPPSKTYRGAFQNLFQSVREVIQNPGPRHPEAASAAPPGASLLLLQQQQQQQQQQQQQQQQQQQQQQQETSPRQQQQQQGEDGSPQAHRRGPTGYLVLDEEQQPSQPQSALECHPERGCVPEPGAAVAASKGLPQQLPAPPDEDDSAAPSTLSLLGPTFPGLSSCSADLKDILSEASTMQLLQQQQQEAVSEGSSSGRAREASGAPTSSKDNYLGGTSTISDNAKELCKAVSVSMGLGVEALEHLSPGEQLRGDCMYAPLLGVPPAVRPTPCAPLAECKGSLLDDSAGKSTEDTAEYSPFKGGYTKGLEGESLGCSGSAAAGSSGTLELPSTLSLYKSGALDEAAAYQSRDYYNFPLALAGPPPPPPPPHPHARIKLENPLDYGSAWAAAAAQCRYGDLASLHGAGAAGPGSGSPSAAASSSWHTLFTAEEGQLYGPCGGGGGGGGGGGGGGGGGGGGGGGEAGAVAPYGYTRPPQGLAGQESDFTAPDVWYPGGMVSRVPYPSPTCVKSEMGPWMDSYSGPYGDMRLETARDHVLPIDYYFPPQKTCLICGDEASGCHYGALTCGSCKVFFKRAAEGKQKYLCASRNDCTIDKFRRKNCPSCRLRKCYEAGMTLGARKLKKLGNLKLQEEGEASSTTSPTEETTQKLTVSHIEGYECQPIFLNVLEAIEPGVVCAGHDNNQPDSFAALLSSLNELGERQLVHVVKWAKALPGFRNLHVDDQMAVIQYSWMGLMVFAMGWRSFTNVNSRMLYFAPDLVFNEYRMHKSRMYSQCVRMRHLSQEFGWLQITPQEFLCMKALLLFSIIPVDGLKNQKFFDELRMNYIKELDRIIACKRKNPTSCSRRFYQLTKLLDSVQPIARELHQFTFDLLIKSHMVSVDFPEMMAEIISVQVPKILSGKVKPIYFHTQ
Protocol: Western Blotting. […] Proteins in cell lysates (40 μg) were separated using electrophoresis on SDS-PAGE and transferred onto PVDF (polyvinylidenedifluoride) membranes. Membranes were blocked in 5% fat-free milk followed by incubation with primary antibodies overnight at 4° C., and the secondary horseradish peroxidase-conjugated anti-rabbit or anti-mouse antibodies. The blots were developed in the Enhanced Chemiluminescence mixture and detected by ImageQuant™ LAS 4000 imaging system (GE). Density of protein bonds were calculated and analyzed by using imageJ software downloaded from the National Institute of Health website.

[6] = test system: PARP cleavage; assay: PARP cleavage under 2-63 plus BSO in PCa cells; type: cell-based; conditions: 2-63 plus BSO combination, data not shown
Source text: 2-63 and BSO combination induces ferroptosis in PCa cells. […] Because both ITC and BSO change redox balance, and because the significant upregulation of HO-1 by 2-63 (FIG. 21) may increase free ferrous iron (Fe2+) inside cells, ferroptosis, a recently defined non-apoptotic cell death mechanism that occurs due to ROS and iron-caused oxidative lipid damage (Stockwell, et al., Cell 2017, 171, 273-285) was explored.

[7] = test system: Sp1 and c-Myc; assay: Western blotting of transcription factors in VCaP cells; type: cell-based; conditions: 5.0 and 10 μM, 24 h
Protocol: FL AR is a client protein of Hsp90, and AR-V7 might be chaperoned by Hsps other than Hsp90 (Moses, et al., Cancer Res. 2018, 78, 4022-4035). Because Hsp70 upregulation is an indicator of heat shock protein disruption (Kitson, et al., Nat. Chem. 2013, 5, 307-314) that causes client protein degradation, it was assessed whether 2-63 could change the protein stability of AR and AR-V7. […] 2-63-induced AR/AR-V7 downregulation was partially rescued by the proteasome inhibitor MG-132 (data not shown). This supports the involvement of proteasome degradation in AR reduction. Besides the posttranslational mechanisms, AR downregulation could also be caused by suppressing transcription factors (TFs) that drive the transcription of the AR gene. Sp1 and c-Myc were selected as representatives that could be affected by 2-63. Multiple Sp1 binding sites are located near the transcriptional initiation region of the AR gene.
Western Blotting. […] The protein concentration of supernatants was determined using the Pierce BCA Protein Assay Kit (Thermo Fisher, Cat #23225). […] The blots were developed in the Enhanced Chemiluminescence mixture and detected by ImageQuant™ LAS 4000 imaging system (GE). Density of protein bonds were calculated and analyzed by using imageJ software downloaded from the National Institute of Health website.

[8] = test system: 22Rv1 cells; assay: Colony formation assay, 22Rv1 cells; type: cell-based; conditions: 2-63 1 μM plus BSO 5 μM, 24 h, then drug-free medium 11 days
Protocol: Colony formation assay. Cells (22Rv1 or C4-2) were seeded in six-well plates (1,000/well) and cultured overnight. Cells were then treated with 2-63 (1 μM in 22Rv1; 2.5 μM in C4-2), BSO (5 μM) alone or in combination for 24 h. Cells were washed and cultured in a drug-free medium (22Rv1, 11 days; C4-2, 8 days). On the last day, the medium was removed, cells were washed with PBS and fixed with methanol. The colonies were stained with crystal violet solution for 3 h at room temperature and air-dried.

CC(=O)N[C@H](CSC(=S)NCCCCCCc1ccc(N2C(=S)N(c3ccc(C#N)c(C(F)(F)F)c3)C(=O)C2(C)C)cn1)C(=O)O [2-63, N-acetyl-S-((6-(5-(3-(4-cyano-3-(trifluoromethyl)phenyl)-5,5-dimethyl-4-oxo-2-thioxoimidazolidin-1-yl)pyridine-2-yl)hexyl)carbamothioyl)-D-cysteine] was tested, and the “viability reduction of DHT-stimulated C4-2 cells” value [1] was 70%, the “viability of RWPE-1 cells remaining” value [2] was “Eighty” and the “relative potency in viability reduction, 22Rv1 cells” value [3] was 12b>2-63>PEITC-NAC. The “relative potency in viability reduction, C4-2 cells” value [4] was 12b>2-63>PEITC-NAC, the “FL AR expression” value [5] was “dose-dependently decreased” and the PARP cleavage [6] was “did not cause detectable PARP cleavage”. The “Sp1 and c-Myc protein level” value [7] was “dose-dependently reduced” and the “colony formation of 22Rv1 cells” value [8] was “very efficiently suppressed colony formation”.
